Reference: patent US9663476B2, “Glycine transporter-1 inhibitors” (AMGEN INC., priority 2006, dated 2017)
Counter-ions that a name gives are not always drawn.

molecular target: T1, human glycine transporter type 1 (Gly-T1) (Homo sapiens, UniProt P48067); assay: Glycine Transporter 1 (GlyT1) uptake assay, [14C] glycine uptake in JAR cells; format: cell-based; settings: approximate IC50; inhibition of [14C] glycine (5 μM) uptake, JAR cells endogenously expressing human Gly-T1
T1 construct: JAR) cells endogenously expressing human glycine transporter type 1 (Gly-T1); endogenous in cells; host or cells: JAR (human placental choriocarcinoma) cells
T1 sequence (P48067 1-706): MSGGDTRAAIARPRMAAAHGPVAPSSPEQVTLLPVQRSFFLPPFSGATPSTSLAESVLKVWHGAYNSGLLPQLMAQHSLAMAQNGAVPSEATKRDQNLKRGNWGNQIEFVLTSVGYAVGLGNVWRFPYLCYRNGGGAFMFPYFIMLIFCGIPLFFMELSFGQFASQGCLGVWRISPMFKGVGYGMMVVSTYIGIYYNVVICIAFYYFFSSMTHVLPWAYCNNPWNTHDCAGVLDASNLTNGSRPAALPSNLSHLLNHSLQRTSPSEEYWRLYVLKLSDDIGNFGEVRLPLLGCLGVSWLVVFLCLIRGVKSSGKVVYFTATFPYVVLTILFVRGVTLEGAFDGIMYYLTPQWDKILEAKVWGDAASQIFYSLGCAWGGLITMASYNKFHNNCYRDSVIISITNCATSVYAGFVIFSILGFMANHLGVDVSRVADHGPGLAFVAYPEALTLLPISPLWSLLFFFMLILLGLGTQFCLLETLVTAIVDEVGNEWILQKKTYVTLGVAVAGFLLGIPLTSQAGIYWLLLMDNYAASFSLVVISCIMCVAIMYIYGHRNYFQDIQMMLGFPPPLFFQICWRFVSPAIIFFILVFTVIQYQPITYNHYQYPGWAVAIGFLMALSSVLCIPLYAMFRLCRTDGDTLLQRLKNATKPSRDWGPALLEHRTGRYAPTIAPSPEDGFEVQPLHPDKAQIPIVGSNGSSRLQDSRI
Experimental: This cell-based assay measures the ability of test compounds to inhibit the uptake of glycine by the glycine transporter type 1. Human placental choriocarcinoma (JAR) cells endogenously expressing human glycine transporter type 1 (Gly-T1) were used for this assay. […] Cells were plated at a density of 4×10^4 cells/well and grown at 37° C. in a humidified atmosphere of 5% CO2 for 24 h.
Culture medium was removed from Cytostar plate and JAR cells were incubated with 30 μl of Uptake buffer (120 mM NaCl, 2 mM KCl, 1 mM CaCl2, 1 mM MgCl2, 10 mM Hepes, 5 mM alanine, pH 7.5) with or without compound for 5 min. […] After incubation at room temperature for the desired time usually 1-2 h, sealed 96-well Cytostar plates were counted on a TopCount (Packard).
IC50 curves were generated from the raw data collected from the TopCount and fitted with a four-parameter logistic equation using in-house data analysis tool, Activity Base.

Point of comparison: C[C@@H]1CN([C@H](c2ccccc2)c2cccc(-c3ccccc3)c2)CCN1CC(=O)O [Cpd 30, [(R)-4-((R)-biphenyl-3-yl-phenyl-methyl)-2-methyl-piperazin-1-yl]-acetic acid], IC50 0.934 nM. Against it:
- O=C(O)CN1CCN([C@H](c2ccccc2)c2cccc(C(F)(F)F)c2)CC1 [Cpd 1, (R)-2-(4-(phenyl(3-(trifluoromethyl)phenyl)methyl)piperazin-1-yl)acetic acid] — 85-fold higher, 79.1 nM
- C[C@@H]1CN([C@H](c2ccccc2)c2cccc(Br)c2)CCN1CC(=O)O [Cpd 20, 2-((R)-4-((R)-(3-bromophenyl)(phenyl)methyl)-2-methylpiperazin-1-yl)acetic acid dihydrochloride salt] — 1.6-fold higher, 1.51 nM
- C[C@@H]1CN([C@H](c2ccccc2)c2cccc(C(F)(F)F)c2)CCN1CC(=O)O [Cpd 24, 2-((R)-2-methyl-4-((R)-phenyl(3-(trifluoromethyl)phenyl)methyl)piperazin-1-yl)acetic acid dihydrochloride salt] — 4.2-fold higher, 3.94 nM
- Cc1cccc([C@@H](c2ccccc2)N2CCN(CC(=O)O)[C@H](C)C2)c1 [Cpd 34, 2-((R)-2-methyl-4-((R)-phenyl(m-tolyl)methyl)piperazin-1-yl)acetic acid] — 19-fold higher, 17.8 nM
- Cc1cccc(-c2ccc([C@@H](c3ccccc3)N3CCN(CC(=O)O)[C@H](C)C3)cc2)c1 [Cpd 48, [(R)-2-methyl-4-[(R)-(3′-methyl-biphenyl-4-yl)-phenyl-methyl]-piperazin-1-yl]-acetic acid] — 2.3-fold higher, 2.14 nM
- Cc1ccc(-c2ccc([C@@H](c3ccccc3)N3CCN(CC(=O)O)[C@H](C)C3)cc2)cc1 [Cpd 49, [(R)-2-methyl-4-[(R)-(4′-methyl-biphenyl-4-yl)-phenyl-methyl]-piperazin-1-yl]-acetic acid] — 7.7-fold higher, 7.2 nM
- C[C@@H]1CN([C@H](c2ccccc2)c2ccc(C#Cc3ccccc3)cc2)CCN1CC(=O)O [Cpd 55A, 2-((R)-2-methyl-4-((R)-phenyl(4-(2-phenylethynyl)phenyl)methyl)piperazin-1-yl)acetic acid] — 1.6-fold higher, 1.5 nM
- C[C@@H]1CN(C(c2cccc(C(F)(F)F)c2)C2CC2)CCN1CC(=O)O (stereo partly drawn) [Cpd 77, 2-((R)-4-(cyclopropyl(3-(trifluoromethyl)phenyl)methyl)-2-methylpiperazin-1-yl)acetic acid dihydrochloride salt] — 44-fold higher, 41.1 nM
- C[C@@H]1CN(C(c2ccc(Cl)cc2)c2ccc(Cl)cc2)CCN1CC(=O)O [Cpd 78, (R)-2-(4-(bis(4-chlorophenyl)methyl)-2-methylpiperazin-1-yl)acetic acid] — 5.1-fold higher, 4.8 nM
- C[C@@H]1CN(C(c2ccc(Cl)cc2)c2ccc(Cl)cc2)CCN1[C@H](C)C(=O)O [Cpd 82, (R)-2-((R)-4-(bis(4-chlorophenyl)methyl)-2-methylpiperazin-1-yl)propanoic acid] — 2400-fold higher, 2200 nM
